These results are taken from patent US6506751B1, “Thiazolidinone compounds useful as chemokine inhibitors” (Millennium Pharmaceuticals, Inc., priority 1999, dated 2003).

This assay has as its target T1, CCR-5 receptor (Homo sapiens, UniProt P51681).
T1 construct: membranes prepared from CCR-5/L 1.2 cells; expressed in transfected cells; host or cells: L1.2 cells (CCR-5/L 1.2), membrane preparation
Kind of assay: 125I-gp120/sCD4/CCR-5 binding assay (CCR-5 receptor binding assay). Conditions: block of 125I-gp120 (HIV-1 JR-FL)/sCD4 binding to membranes from CCR-5/L 1.2 cells. How it is done: The ^125I-gp120/sCD4/CCR-5 binding assay is carried out similarly as described in Wu et al., Nature, 1996;384:179-183. Briefly, the envelope gp120 protein derived from HIV-1 JR-FL (Trkola et al., Nature, 1996;384:184-186), a M-tropic strain, is iodinated using solid phase lactoperoxidase to a specific activity of 20 μCi/μg. For each binding reaction (in a final volume of 100 μL binding buffer [50 mM HEPES, pH 7.5, 1 mM CaCl2, 5 mM MgCl2, and 0.5% BSA]), 25 μL (2.5 μg) of membranes prepared from CCR-5/L 1.2 cells are mixed with 25 μL (3 nM) sCD4, followed by 25 μL (0.1 nM) radiolabeled gp120 in the presence or absence of 25 μL compound dissolved in DMSO (final concentration of DMSO 0.5%). The reactions are incubated at room temperature for 45 to 60 minutes and stopped by transferring the mixture to GFB filter plates, which are then washed 3 to 4 times with binding buffer containing 0.5 M NaCl. The plates are dried and MicroScint scintillation fluid is added before counting.

T1 sequence (P51681 whole entry): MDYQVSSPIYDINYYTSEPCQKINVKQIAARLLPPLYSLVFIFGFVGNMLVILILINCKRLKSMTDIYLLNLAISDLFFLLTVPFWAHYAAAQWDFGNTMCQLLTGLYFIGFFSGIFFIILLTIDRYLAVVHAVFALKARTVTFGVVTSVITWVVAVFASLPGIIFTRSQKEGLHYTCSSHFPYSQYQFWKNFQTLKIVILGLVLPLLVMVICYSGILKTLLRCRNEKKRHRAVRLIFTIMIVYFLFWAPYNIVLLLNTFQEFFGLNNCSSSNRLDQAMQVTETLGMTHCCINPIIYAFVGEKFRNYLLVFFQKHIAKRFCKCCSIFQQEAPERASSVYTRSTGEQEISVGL

`O=C1/C(=C\c2ccccc2)SC(c2cccc(Cl)c2)N1CCCN1CCCCC1` (centres unmarked) [Compound 3, 5-Benzylidene-2-(3-chlorophenyl)-3-(3-piperidin-1-yl-propyl)-thiazolidin-4-one] came in with an IC50 of 0.28 µM.

Compound `O=C1/C(=C\c2cccc(F)c2)SC(c2cccc(Cl)c2)N1CCCN1CCCCC1` (centres unmarked) [Compound 4, 2-(3-Chlorophenyl)-5-(3-fluorobenzylidene)-3-(3-piperidin-1-yl-propyl)-thiazolidin-4-one] yielded an IC50 of 0.2 µM.

Consider `O=C1/C(=C\c2cccc(F)c2)SC(c2ccccc2)N1CCCN1CCC(N2CCCCC2)CC1` (centres unmarked) [Compound 5, 3-(3-[1,4′]Bipiperidinyl-1′-yl-propyl)-5-(3-fluorobenzylidene)-2-phenyl-thiazolidin-4-one], for which the IC50 came to 0.71 µM.

For `O=C1/C(=C\c2cccc(F)c2)SC(c2ccccc2)N1CCCN1CCOCC1` (centres unmarked) [Compound 7, 5-(3-Fluorobenzylidene)-3-(3-morpholin-4-yl-propyl)-2-phenyl-thiazolidin-4-one], the IC50 was 0.14 µM.

`O=C1/C(=C\c2ccncc2)SC(c2cccc(Cl)c2)N1CCCN1CCCCC1` (centres unmarked) [Compound 8, 2-(3-Chlorophenyl)-3-(3-piperidin-1-yl-propyl)-5-(pyridin-4-yl-methylene)-thiazolidin-4-one] yielded a half-inhibitory concentration (IC50) of 0.78 µM.

Consider `O=C1/C(=C\c2ccc[nH]2)SC(c2cccc(Cl)c2)N1CCCN1CCCCC1` (centres unmarked) [Compound 9, 2-(3-Chlorophenyl)-3-(3-piperidin-1-yl-propyl)-5-(1 H-pyrrol-2-yl-methylene)-thiazolidin-4-one], for which the IC50 was found to be 0.39 µM.

With `O=C1/C(=C\c2ccsc2)SC(c2cccc(Cl)c2)N1CCCN1CCCCC1` (centres unmarked) [Compound 10, 2-(3-Chlorophenyl)-3-(3-piperidin-1-yl-propyl)-5-(thiophen-3-yl-methylene)-thiazolidin-4-one], the IC50 is 1.04 µM.

In turn, `Cn1cccc1C=C1SC(c2cccc(Cl)c2)N(CCCN2CCCCC2)C1=O` (centres unmarked) [Compound 11, 2-(3-Chlorophenyl)-5-(1-methyl-1H-pyrrol-2-ylmethylene)-3-(3-piperidin-1-yl-propyl)-thiazolidin-4-one] gave an IC50 of 0.98 µM.

Consider `CCC(/C=C1/SC(c2cccc(Cl)c2)N(CCCN2CCCCC2)C1=O)CC` (centres unmarked) [Compound 12, 2-(3-Chlorophenyl)-5-(2-ethylbutylidene)-3-(3-piperidin-1-yl-propyl)-thiazolidin-4-one], for which the IC50 is 6.64 µM.

Take `CN(C)CC(C)(C)/C=C1/SC(c2cccc(Cl)c2)N(CCCN2CCCCC2)C1=O` (centres unmarked) [Compound 13, 2-(3-Chlorophenyl)-5-(3-dimethylamino-2,2-dimethylpropylidene)-3-(3-piperidin-1-yl-propyl)-thiazolidin-4-one]: the IC50 came out at 2.82 µM.

With `O=C1/C(=C\c2cnc3ccccc3c2)SC(c2cccc(Cl)c2)N1CCCN1CCCCC1` (centres unmarked) [Compound 18, 2-(3-Chlorophenyl)-3-(3-piperidin-1-yl-propyl)-5-(quinolin-3-ylmethylene)-thiazolidin-4-one], the IC50 was determined as 4.12 µM.

Compound `O=C1C(=Cc2ccccc2)SC(c2ccccc2)N1CCCN1CCCCCC1` (centres unmarked) [Compound 21, 3-(3-Azepan-1-ylpropyl)-5-benzylidene-2-phenyl-thiazolidin-4-one] registered an IC50 of 1.4 µM.

The compound `O=C1/C(=C\c2cccc(F)c2)SC(c2cccc(Cl)c2)N1CCCN1CCC(N2CCCCC2)CC1` (centres unmarked) [Compound 22, 3-(3-[1,4′]Bipiperidinyl-1′-yl-propyl)-2-(3-chlorophenyl)-5-(3-fluorobenzylidene)-thiazolidin-4-one] returned an IC50 of 0.4 µM.

With `O=C1C(=Cc2ccccc2)[S+]([O-])C(c2cccc(Cl)c2)N1CCCN1CCCCC1` (centres unmarked) [Compound 24, 5-Benzylidene-2-(3-chlorophenyl)-1-oxo-3-(3-piperidin-1-yl-propyl)-thiazolidin-4-one], the IC50 stood at 3.1 µM.

Broadly, the IC50 is the concentration at which inhibition is half-maximal. A higher IC50 goes with a need for much substance.
